These results are taken from patent US20140155429A1, “Treatment of Cognitive Disorders with Certain Alpha-7 Nicotinic Acid Receptor Agonists in Combination with Nicotine” (EnVivo Pharmaceuticals, Inc., priority 2011, published 2014).

One experiment relates to schizophrenia subjects. The experiment is described as follows: Sensory electrophysiological responses (P50 gating, MMN, P300, N100) in schizophrenia subjects. In kind it is in vivo, human. As to conditions: in combination with a tobacco-free nicotine dosage form, greater than compound alone, expected at a daily dose as low as 0.3 mg. How it is done:
These effects are expected at a daily dose as low as 0.3 mg of (R)-7-chloro-N-(quinuclidin-3-yl)benzo[b]thiophene-2-carboxamide hydrochloride.
Impairment of the ability of central nervous system to inhibit irrelevant sensory information has long been used as a model for understanding the deficits of attention seen in schizophrenic subjects. Two approaches to the measurement of this ability have commonly been employed (see (Heinrichs, 2004; Potter et al., 2006; Turetsky et al., 2007; Umbricht and Krljes, 2005) for reviews and meta-analyses): (1) the sensory gating paradigm in which the presentation of one stimulus normally suppresses the response elicited by a stimulus which rapidly follows it. […] (2) the oddball or orienting paradigm in which a rare or unexpected event elicits a diminished response in schizophrenic subjects because attentional resources are inappropriately focused on less salient aspects of the environment.
Two responses are commonly used assess brain activity: (1) the auditory P50 response elicited by the second member of a pair of clicks; and (2) the mismatch negativity (MMN) or N2 response evoked by a rarely occurring pure tone of no instructed relevance to the subject. Abnormalities in both P50 gating and the MMN have been reported in schizophrenic subjects. […]

In another experiment the test system is humans. Briefly: Procognitive effects in humans at low doses. Type of experiment: in vivo, human. As to conditions: unexpectedly low doses. The text has this:
Thus, (R)-7-chloro-N-(quinuclidin-3-yl)benzo[b]thiophene-2-carboxamide and pharmaceutically acceptable salts thereof can be used at unexpectedly low doses improve cognition in individuals suffering from impaired cognition and in healthy individuals (i.e., individuals that are not suffering from an apparent cognitive deficit). For example, it can be used to improve cognition in subjects suffering from Alzheimer's disease, schizophrenia and other disorders such as other neurodegenerative diseases (e.g., Huntington's Disease or Parkinson's Disease) and attention deficit disorder. It can be used to treat certain disorders, e.g., Alzheimer's disease, schizophrenia (e.g., paranoid type, disorganized type, catatonic type, and undifferentiated type), schizophreniform disorder, schizoaffective disorder, delusional disorder, positive symptoms of schizophrenia, negative symptoms of schizophrenia at a daily dose of 3 mg, 2.70 mg, 2.50 mg, 2.25 mg, 2 mg, 1.75 mg, 1.50 mg, 1.25 mg, 1 mg, 0.7, 0.5, 0.3 mg or even 0.1 mg. The compound can be used to improve one or more aspects of cognition, e.g., one or more of: executive function, memory (e.g., working memory), social cognition, visual learning, verbal learning and speed of processing. […]

Experiment [1] in a line: Memory improvement at a subclinical dose in combination with an acetylcholinesterase inhibitor. Type of experiment: in vivo. As to conditions: in combination with an acetylcholinesterase inhibitor also at a subclinical dose. How it is done: Thus, a subject can experience a benefit (e.g., improved memory or cognition) from a combination of drugs each of which is administered at very low, side-effect reducing or side-effect avoiding dose. Moreover, the combination of drugs may provide a benefit for a wider range or subjects and/or over a longer period of treatment.

Regarding `Cl.O=C(N[C@H]1CN2CCC1CC2)c1cc2cccc(Cl)c2s1` [(R)-7-chloro-N-(quinuclidin-3-yl)benzo[b]thiophene-2-carboxamide hydrochloride], in the experiment with schizophrenia subjects, the “sensory electrophysiological responses which correlate with improved cognitive and functional performance” value is “can improve sensory electrophysiological responses”.

In the case of `O=C(N[C@H]1CN2CCC1CC2)c1cc2cccc(Cl)c2s1` [(R)-7-chloro-N-(quinuclidin-3-yl)benzo[b]thiophene-2-carboxamide], the procognitive effects result in the experiment on humans is given as “can have procognitive effects in humans at unexpectedly low doses”. Moreover, the memory result in experiment [1] was “memory can be improved”.
